The values that follow are results of earlier work, collected in article PMC9963398, “Discovery of New Quinolone-Based Diarylamides as Potent B-RAF^V600E/C-RAF Kinase Inhibitors Endowed with Promising In Vitro Anticancer Activity” (International Journal of Molecular Sciences, 2023).

The GI50 is the concentration at which growth is held to half of that of the control.

For one data set, the system named is BT-549. The arrangement: method as in PMID 32745753. The following applies: BT-549, Breast cancer; cited from earlier work.
The next data set deals with OVCAR-3. The arrangement: method as in PMID 32745753. The following applies: OVCAR-3, Ovarian cancer; cited from earlier work.
In a further data set the test system is SF-268. The arrangement: method as in PMID 32745753. As to conditions: SF-268, CNS cancer; cited from earlier work.
The test system of a further data set is UACC-62. The arrangement: method as in PMID 32745753. The following applies: UACC-62, Melanoma; cited from earlier work.
Another data set concerns COLO 205. The arrangement: method as in PMID 32745753. The following applies: COLO 205, Colon cancer; cited from earlier work.
The subject of a further data set is K-562. The arrangement: method as in PMID 32745753. The following applies: K-562, Leukemia; cited from earlier work.
The subject of another data set is SR. The arrangement: method as in PMID 32745753. As to conditions: Leukemia; cited from earlier work.
In the next data set the test system is HCC-2998. The arrangement: method as in PMID 32745753. As to conditions: HCC-2998, Colon cancer; cited from earlier work.
In a further data set the test system is MDA-MB-468. The following applies: MDA-MB-468, Breast cancer; cited from earlier work.
Another data set has as its system HOP-92. The arrangement: method as in PMID 32745753. As to conditions: HOP-92, NSCL cancer; cited from earlier work.
In another data set the test system is DU-145. The arrangement: method as in PMID 32745753. As to conditions: DU-145, Prostate cancer; cited from earlier work.
The subject of the next data set is SN12C. The arrangement: method as in PMID 32745753. As to conditions: Renal cancer; cited from earlier work.

For the molecule `CNC(=O)c1cc(Oc2ccc(NC(=O)Nc3ccc(Cl)c(C(F)(F)F)c3)cc2)ccn1` [Sorafenib], the GI50 with BT-549 is 3300 nM; in the data set on OVCAR-3, 2900 nM; with SF-268, 2500 nM; in the data set on UACC-62 it was 1700 nM; in the data set on COLO 205, 2200 nM; in the data set on K-562, 2800 nM. For the same molecule, the GI50 with SR was 3100 nM; with HCC-2998, 3000 nM; with MDA-MB-468, 2000 nM; in the data set on HOP-92, 1600 nM; in the data set on DU-145 it was 3300 nM; with SN12C, 2400 nM.
